Results from PubChem BioAssay (NCI).
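Abbreviation: GI50, concentration required for 50% inhibition of growth. TGI: total growth inhibition.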

What was measured:
Assay in all cases: inhibition of tumour cell growth, NCI panel, 384-well format
786-0 renal = test system: 786-0 renal
A498 renal = test system: A498 renal
A549 NSCLC = test system: A549 NSCLC
ACHN renal = test system: ACHN renal
BT-549 breast = test system: BT-549 breast
CAKI-1 renal = test system: CAKI-1 renal
CCRF-CEM leukemia = test system: CCRF-CEM leukemia
COLO 205 colon = test system: COLO 205 colon
DU-145 prostate = test system: DU-145 prostate
EKVX NSCLC = test system: EKVX NSCLC
HCC-2998 colon = test system: HCC-2998 colon
HCT-116 colon = test system: HCT-116 colon
HCT-15 colon = test system: HCT-15 colon
HL-60(TB) leukemia = test system: HL-60(TB) leukemia
HOP-62 NSCLC = test system: HOP-62 NSCLC
HOP-92 NSCLC = test system: HOP-92 NSCLC
HS 578T breast = test system: HS 578T breast
HT29 colon = test system: HT29 colon
IGROV1 ovarian = test system: IGROV1 ovarian
K-562 leukemia = test system: K-562 leukemia
KM12 colon = test system: KM12 colon
LOX IMVI melanoma = test system: LOX IMVI melanoma
M14 melanoma = test system: M14 melanoma
MALME-3M melanoma = test system: MALME-3M melanoma
MCF7 breast = test system: MCF7 breast
MDA-MB-231 breast = test system: MDA-MB-231 breast
MDA-MB-435 melanoma = test system: MDA-MB-435 melanoma
MOLT-4 leukemia = test system: MOLT-4 leukemia
NCI-H226 lung = test system: NCI-H226 lung
NCI-H23 lung = test system: NCI-H23 lung
NCI-H322M lung = test system: NCI-H322M lung
NCI-H460 NSCLC = test system: NCI-H460 NSCLC
NCI-H522 lung = test system: NCI-H522 lung
NCI/ADR-RES ovarian = test system: NCI/ADR-RES ovarian
OVCAR-3 ovarian = test system: OVCAR-3 ovarian
OVCAR-4 ovarian = test system: OVCAR-4 ovarian
OVCAR-5 ovarian = test system: OVCAR-5 ovarian
OVCAR-8 ovarian = test system: OVCAR-8 ovarian
PC-3 prostate = test system: PC-3 prostate
RPMI-8226 leukemia = test system: RPMI-8226 leukemia
RXF 393 renal = test system: RXF 393 renal
SF-268 CNS = test system: SF-268 CNS
SF-295 CNS = test system: SF-295 CNS
SF-539 CNS = test system: SF-539 CNS
SK-MEL-2 melanoma = test system: SK-MEL-2 melanoma
SK-MEL-28 melanoma = test system: SK-MEL-28 melanoma
SK-MEL-5 melanoma = test system: SK-MEL-5 melanoma
SK-OV-3 ovarian = test system: SK-OV-3 ovarian
SN12C renal = test system: SN12C renal
SNB-19 CNS = test system: SNB-19 CNS
SNB-75 CNS = test system: SNB-75 CNS
SR leukemia = test system: SR leukemia
SW-620 colon = test system: SW-620 colon
T-47D breast = test system: T-47D breast
TK-10 renal = test system: TK-10 renal
U251 glioblastoma = test system: U251 glioblastoma
UACC-257 melanoma = test system: UACC-257 melanoma
UACC-62 melanoma = test system: UACC-62 melanoma
UO-31 renal = test system: UO-31 renal

CN1C(=O)[C@@H](NC(=O)[C@H](CCC(F)(F)F)[C@H](CCC(F)(F)F)C(N)=O)N=C(c2ccccc2)c2ccccc21
GI50 ([…]-0 renal): 87.1 µM
TGI (786-0 renal): > 100 µM
GI50 (A498 renal): 42 µM
TGI (A498 renal): > 100 µM
GI50 (A549 NSCLC): 67.5 µM
TGI (A549 NSCLC): > 100 µM
GI50 (ACHN renal): > 100 µM
TGI (ACHN renal): > 100 µM
GI50 (BT-549 breast): > 100 µM
TGI (BT-549 breast): > 100 µM
GI50 (CAKI-1 renal): 58.2 µM
TGI (CAKI-1 renal): > 100 µM
GI50 (CCRF-CEM leukemia): 53.3 µM
TGI (CCRF-CEM leukemia): > 100 µM
GI50 (COLO 205 colon): > 79.5 µM
TGI (COLO 205 colon): > 100 µM
GI50 (DU-145 prostate): > 100 µM
TGI (DU-145 prostate): > 100 µM
GI50 (EKVX NSCLC): > 100 µM
TGI (EKVX NSCLC): > 100 µM
GI50 (HCC-2998 colon): > 100 µM
TGI (HCC-2998 colon): > 100 µM
GI50 (HCT-116 colon): > 92.7 µM
TGI (HCT-116 colon): > 100 µM
GI50 (HCT-15 colon): > 95.7 µM
TGI (HCT-15 colon): > 100 µM
GI50 (HL-60(TB) leukemia): > 51.6 µM
TGI (HL-60(TB) leukemia): > 100 µM
GI50 (HOP-62 NSCLC): > 100 µM
TGI (HOP-62 NSCLC): > 100 µM
GI50 (HOP-92 NSCLC): 33.9 µM
TGI (HOP-92 NSCLC): > 100 µM
GI50 (HS 578T breast): 24.7 µM
TGI (HS 578T breast): > 100 µM
GI50 (HT29 colon): 62.5 µM
TGI (HT29 colon): > 100 µM
GI50 (IGROV1 ovarian): > 100 µM
TGI (IGROV1 ovarian): > 100 µM
GI50 (K-562 leukemia): 71.6 µM
TGI (K-562 leukemia): > 100 µM
GI50 (KM12 colon): > 100 µM
TGI (KM12 colon): > 100 µM
GI50 (LOX IMVI melanoma): > 100 µM
TGI (LOX IMVI melanoma): > 100 µM
GI50 (M14 melanoma): > 100 µM
TGI (M14 melanoma): > 100 µM
GI50 (MALME-3M melanoma): > 100 µM
TGI (MALME-3M melanoma): > 100 µM
GI50 (MCF7 breast): 40.9 µM
TGI (MCF7 breast): > 100 µM
GI50 (MDA-MB-231 breast): > 93.3 µM
TGI (MDA-MB-231 breast): > 100 µM
GI50 (MDA-MB-435 melanoma): > 100 µM
TGI (MDA-MB-435 melanoma): > 100 µM
GI50 (MOLT-4 leukemia): 19.8 µM
TGI (MOLT-4 leukemia): > 100 µM
GI50 (NCI-H226 lung): > 52.7 µM
TGI (NCI-H226 lung): > 100 µM
GI50 (NCI-H23 lung): > 100 µM
TGI (NCI-H23 lung): > 100 µM
GI50 (NCI-H322M lung): > 100 µM
TGI (NCI-H322M lung): > 100 µM
GI50 (NCI-H460 NSCLC): 84.4 µM
TGI (NCI-H460 NSCLC): > 100 µM
GI50 (NCI-H522 lung): 79.9 µM
TGI (NCI-H522 lung): > 100 µM
GI50 (NCI/ADR-RES ovarian): > 100 µM
TGI (NCI/ADR-RES ovarian): > 100 µM
GI50 (OVCAR-3 ovarian): 55.9 µM
TGI (OVCAR-3 ovarian): > 100 µM
GI50 (OVCAR-4 ovarian): 43.4 µM
TGI (OVCAR-4 ovarian): > 100 µM
GI50 (OVCAR-5 ovarian): > 100 µM
TGI (OVCAR-5 ovarian): > 100 µM
GI50 (OVCAR-8 ovarian): > 100 µM
TGI (OVCAR-8 ovarian): > 100 µM
GI50 (PC-3 prostate): > 94.6 µM
TGI (PC-3 prostate): > 100 µM
GI50 (RPMI-8226 leukemia): 48.3 µM
TGI (RPMI-8226 leukemia): > 100 µM
GI50 (RXF 393 renal): 23.9 µM
TGI (RXF 393 renal): > 84.7 µM
GI50 (SF-268 CNS): > 43.9 µM
TGI (SF-268 CNS): > 90.2 µM
GI50 (SF-295 CNS): 99.5 µM
TGI (SF-295 CNS): > 100 µM
GI50 (SF-539 CNS): > 100 µM
TGI (SF-539 CNS): > 100 µM
GI50 (SK-MEL-2 melanoma): > 100 µM
TGI (SK-MEL-2 melanoma): > 100 µM
GI50 (SK-MEL-28 melanoma): > 83.8 µM
TGI (SK-MEL-28 melanoma): > 100 µM
GI50 (SK-MEL-5 melanoma): > 59.4 µM
TGI (SK-MEL-5 melanoma): > 100 µM
GI50 (SK-OV-3 ovarian): > 100 µM
TGI (SK-OV-3 ovarian): > 100 µM
GI50 (SN12C renal): > 100 µM
TGI (SN12C renal): > 100 µM
GI50 (SNB-19 CNS): > 100 µM
TGI (SNB-19 CNS): > 100 µM
GI50 (SNB-75 CNS): 17.3 µM
TGI (SNB-75 CNS): 96.8 µM
GI50 (SR leukemia): 13.6 µM
TGI (SR leukemia): 33.6 µM
GI50 (SW-620 colon): > 100 µM
TGI (SW-620 colon): > 100 µM
GI50 (T-47D breast): 14.6 µM
TGI (T-47D breast): 65 µM
GI50 (TK-10 renal): > 100 µM
TGI (TK-10 renal): > 100 µM
GI50 (U251 glioblastoma): 98.8 µM
TGI (U251 glioblastoma): > 100 µM
GI50 (UACC-257 melanoma): > 63.2 µM
TGI (UACC-257 melanoma): > 100 µM
GI50 (UACC-62 melanoma): > 100 µM
TGI (UACC-62 melanoma): > 100 µM
GI50 (UO-31 renal): 60.1 µM
TGI (UO-31 renal): > 100 µM
